Test results taken from ChEMBL document CHEMBL4619816, “GSK973 Is an Inhibitor of the Second Bromodomains (BD2s) of the Bromodomain and Extra-Terminal (BET) Family” (ACS Med Chem Lett, 2020).
Activity calls are given as the source filed them.

Assays:
[1] = Chromatographic hydrophobicity index, log D of the compound in pH 7.4 ammonium acetate buffer/acetonitrile gradient by HPLC analysis; assay type: physicochemical
[2] = Permeability of compound by artificial membrane assay; assay type: ADME; settings: PAMPA; read-out: permeability
[3] = Clearance in Beagle dog hepatocytes assessed as per gram tissue at 0.5 uM by LC-MS/MS analysis; assay type: ADME, cell-based, Canis lupus familiaris, Hepatocyte
[4] = Clearance in Wistar Han rat at 1 mg/kg administered as iv infusion for 1 hr and measured up to 24 hrs by LC-MS/MS analysis; assay type: ADME, organism-based; settings: in vivo
[5] = Renal clearance in Wistar Han rat at 1 mg/kg administered as iv infusion for 1 hr and measured up to 24 hrs by LC-MS/MS analysis; assay type: ADME, organism-based; settings: in vivo
[6] = Volume of distribution at steady state in Wistar Han rat at 1 mg/kg administered as iv infusion for 1 hr and measured up to 24 hrs by LC-MS/MS analysis; assay type: ADME, organism-based; settings: in vivo, read-out: Vdss
[7] = Half life in Wistar Han rat at 1 mg/kg administered as iv infusion for 1 hr and measured up to 24 hrs by LC-MS/MS analysis; assay type: ADME, organism-based; settings: in vivo
[8] = Clearance in Beagle dog at 1 mg/kg, iv; assay type: ADME, organism-based, Canis lupus familiaris; settings: in vivo
[9] = Renal clearance in Beagle dog at 1 mg/kg, iv; assay type: ADME, organism-based, Canis lupus familiaris; settings: in vivo
[10] = Half life in Beagle dog at 1 mg/kg, iv; assay type: ADME, organism-based, Canis lupus familiaris; settings: in vivo
[11] = Oral bioavailability in Beagle dog at 1 mg/kg, […]; assay type: ADME, organism-based, Canis lupus familiaris; settings: in vivo
[12] = target: ATPase family AAA domain-containing protein 2 (Homo sapiens) (UniProt Q6PL18); assay: Inhibition of human partial length ATAD2A (Q981 to R1108 residues) expressed in bacterial expression system by BROMOscan assay
[13] = target: ATPase family AAA domain-containing protein 2B (Homo sapiens) (UniProt Q9ULI0); assay: Inhibition of human partial length ATAD2B (Q955 to R1082 residues) expressed in bacterial expression system by BROMOscan assay
[14] = target: Bromodomain adjacent to zinc finger domain protein 2A (Homo sapiens) (UniProt Q9UIF9); assay: Inhibition of human partial length BAZ2A (M1792 to L1905 residues) expressed in bacterial expression system by BROMOscan assay
[15] = target: Bromodomain adjacent to zinc finger domain protein 2B (Homo sapiens) (UniProt Q9UIF8); assay: Inhibition of human partial length BAZ2B (S2054 to S2168 residues) expressed in bacterial expression system by BROMOscan assay
[16] = target: Bromodomain-containing protein 1 (Homo sapiens) (UniProt O95696); assay: Inhibition of human partial length BRD1 (E556 to A688 residues) expressed in bacterial expression system by BROMOscan assay
[17] = target: Bromodomain-containing protein 2 (Homo sapiens) (UniProt P25440); assay: Inhibition of human partial length BRD2 bromodomain 1 long isoform (K71 to N194 residues) expressed in bacterial expression system by BROMOscan assay
Bromodomain-containing protein 2 (Homo sapiens), sequence (P25440 whole entry, looked up, the tested form may be a part, canonical isoform): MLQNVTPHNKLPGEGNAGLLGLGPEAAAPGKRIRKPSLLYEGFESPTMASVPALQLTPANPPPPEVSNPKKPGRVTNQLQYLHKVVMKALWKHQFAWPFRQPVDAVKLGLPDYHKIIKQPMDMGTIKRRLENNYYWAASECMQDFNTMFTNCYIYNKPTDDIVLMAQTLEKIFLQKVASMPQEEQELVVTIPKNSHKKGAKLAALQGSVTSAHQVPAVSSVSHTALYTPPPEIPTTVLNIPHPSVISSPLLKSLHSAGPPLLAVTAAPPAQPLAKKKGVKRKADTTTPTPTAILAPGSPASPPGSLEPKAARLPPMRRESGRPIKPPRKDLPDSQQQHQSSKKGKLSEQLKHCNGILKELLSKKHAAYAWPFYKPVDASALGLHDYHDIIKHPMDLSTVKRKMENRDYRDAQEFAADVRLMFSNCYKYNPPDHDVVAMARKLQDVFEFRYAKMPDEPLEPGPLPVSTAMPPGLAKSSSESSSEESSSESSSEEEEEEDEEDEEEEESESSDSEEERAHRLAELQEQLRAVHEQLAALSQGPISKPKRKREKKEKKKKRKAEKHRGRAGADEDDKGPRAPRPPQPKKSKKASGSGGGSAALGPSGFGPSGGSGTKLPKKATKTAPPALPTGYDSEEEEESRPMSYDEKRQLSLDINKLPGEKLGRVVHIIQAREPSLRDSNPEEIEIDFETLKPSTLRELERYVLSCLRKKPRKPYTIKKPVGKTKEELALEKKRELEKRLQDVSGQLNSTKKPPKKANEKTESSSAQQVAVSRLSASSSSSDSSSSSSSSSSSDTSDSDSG

[18] = target: Bromodomain-containing protein 2 (Homo sapiens) (UniProt P25440); assay: Inhibition of human partial length BRD2 bromodomain 1/2 isoform 1 (K71 to D455 residues) by BROMOscan assay
[19] = target: Bromodomain-containing protein 3 (Homo sapiens) (UniProt Q15059); assay: Inhibition of human partial length BRD3 bromodomain 1 (P24 to E144 residues) expressed in bacterial expression system by BROMOscan assay
Bromodomain-containing protein 3 (Homo sapiens), sequence (Q15059 2-726 limits assumed): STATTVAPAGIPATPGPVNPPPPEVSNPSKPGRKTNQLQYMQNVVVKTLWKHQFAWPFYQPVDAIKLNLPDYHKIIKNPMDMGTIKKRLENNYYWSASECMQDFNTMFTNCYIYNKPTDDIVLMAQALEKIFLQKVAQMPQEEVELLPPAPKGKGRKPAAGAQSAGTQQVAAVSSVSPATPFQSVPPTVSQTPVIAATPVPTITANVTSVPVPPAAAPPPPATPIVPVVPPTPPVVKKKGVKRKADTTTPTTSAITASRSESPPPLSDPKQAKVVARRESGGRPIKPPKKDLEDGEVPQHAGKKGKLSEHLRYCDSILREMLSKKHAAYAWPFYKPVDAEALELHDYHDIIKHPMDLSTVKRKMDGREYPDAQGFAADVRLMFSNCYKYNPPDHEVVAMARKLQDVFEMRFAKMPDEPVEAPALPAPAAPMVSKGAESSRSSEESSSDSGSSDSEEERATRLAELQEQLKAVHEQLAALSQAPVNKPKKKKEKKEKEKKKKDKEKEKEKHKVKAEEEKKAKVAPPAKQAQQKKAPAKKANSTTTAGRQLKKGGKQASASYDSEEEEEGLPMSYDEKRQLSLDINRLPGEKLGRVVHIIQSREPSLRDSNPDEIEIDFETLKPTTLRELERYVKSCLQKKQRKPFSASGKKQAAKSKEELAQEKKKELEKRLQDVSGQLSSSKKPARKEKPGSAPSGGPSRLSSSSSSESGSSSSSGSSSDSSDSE

[20] = target: Bromodomain-containing protein 3 (Homo sapiens) (UniProt Q15059); assay: Inhibition of BRD3 bromodomain 1/2 (unknown origin) by BROMOscan assay
[21] = target: Bromodomain-containing protein 8 (Homo sapiens) (UniProt Q9H0E9); assay: Inhibition of BRD8 bromodomain 1 (unknown origin) by BROMOscan assay
Bromodomain-containing protein 8 (Homo sapiens), sequence (Q9H0E9 whole entry, the tested form may be a part): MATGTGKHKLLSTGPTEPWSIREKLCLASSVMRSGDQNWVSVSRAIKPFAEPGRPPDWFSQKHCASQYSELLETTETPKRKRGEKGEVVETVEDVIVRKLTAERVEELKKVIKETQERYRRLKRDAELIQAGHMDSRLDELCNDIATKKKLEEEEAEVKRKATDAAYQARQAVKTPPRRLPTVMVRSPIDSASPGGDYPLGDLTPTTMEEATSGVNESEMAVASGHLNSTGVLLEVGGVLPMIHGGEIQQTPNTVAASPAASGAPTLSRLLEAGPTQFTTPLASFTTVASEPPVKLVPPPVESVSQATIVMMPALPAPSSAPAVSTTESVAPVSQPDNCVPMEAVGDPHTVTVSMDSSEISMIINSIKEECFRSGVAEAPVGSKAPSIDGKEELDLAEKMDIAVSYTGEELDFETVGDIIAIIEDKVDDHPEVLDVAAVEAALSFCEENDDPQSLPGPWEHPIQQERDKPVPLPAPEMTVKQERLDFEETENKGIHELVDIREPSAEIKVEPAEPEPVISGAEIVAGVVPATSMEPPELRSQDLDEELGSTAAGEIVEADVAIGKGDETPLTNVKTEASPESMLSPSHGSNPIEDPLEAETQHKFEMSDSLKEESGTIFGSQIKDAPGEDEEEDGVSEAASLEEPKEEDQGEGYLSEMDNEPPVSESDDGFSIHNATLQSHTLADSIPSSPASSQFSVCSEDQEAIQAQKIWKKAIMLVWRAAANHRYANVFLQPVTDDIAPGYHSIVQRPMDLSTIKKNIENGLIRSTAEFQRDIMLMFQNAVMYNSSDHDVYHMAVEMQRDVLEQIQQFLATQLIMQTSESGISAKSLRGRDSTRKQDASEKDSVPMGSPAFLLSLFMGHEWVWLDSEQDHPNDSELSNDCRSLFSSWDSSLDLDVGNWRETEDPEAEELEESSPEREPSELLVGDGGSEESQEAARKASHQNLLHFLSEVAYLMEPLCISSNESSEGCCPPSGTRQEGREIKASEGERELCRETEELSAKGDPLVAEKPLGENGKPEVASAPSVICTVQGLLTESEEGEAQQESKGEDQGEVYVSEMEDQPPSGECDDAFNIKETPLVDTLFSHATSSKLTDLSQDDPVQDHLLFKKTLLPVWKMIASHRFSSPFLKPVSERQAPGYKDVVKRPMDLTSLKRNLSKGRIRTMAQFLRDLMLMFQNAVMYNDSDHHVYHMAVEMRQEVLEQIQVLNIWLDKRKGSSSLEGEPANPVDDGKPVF

[22] = target: Bromodomain-containing protein 8 (Homo sapiens) (UniProt Q9H0E9); assay: Inhibition of BRD8 bromodomain 2 (unknown origin) by BROMOscan assay
[23] = target: Bromodomain-containing protein 9 (Homo sapiens) (UniProt Q9H8M2); assay: Inhibition of human partial length BRD9 (R130 to V259 residues) expressed in bacterial expression system by BROMOscan assay
Bromodomain-containing protein 9 (Homo sapiens), sequence (Q9H8M2 whole entry, the tested form may be a part): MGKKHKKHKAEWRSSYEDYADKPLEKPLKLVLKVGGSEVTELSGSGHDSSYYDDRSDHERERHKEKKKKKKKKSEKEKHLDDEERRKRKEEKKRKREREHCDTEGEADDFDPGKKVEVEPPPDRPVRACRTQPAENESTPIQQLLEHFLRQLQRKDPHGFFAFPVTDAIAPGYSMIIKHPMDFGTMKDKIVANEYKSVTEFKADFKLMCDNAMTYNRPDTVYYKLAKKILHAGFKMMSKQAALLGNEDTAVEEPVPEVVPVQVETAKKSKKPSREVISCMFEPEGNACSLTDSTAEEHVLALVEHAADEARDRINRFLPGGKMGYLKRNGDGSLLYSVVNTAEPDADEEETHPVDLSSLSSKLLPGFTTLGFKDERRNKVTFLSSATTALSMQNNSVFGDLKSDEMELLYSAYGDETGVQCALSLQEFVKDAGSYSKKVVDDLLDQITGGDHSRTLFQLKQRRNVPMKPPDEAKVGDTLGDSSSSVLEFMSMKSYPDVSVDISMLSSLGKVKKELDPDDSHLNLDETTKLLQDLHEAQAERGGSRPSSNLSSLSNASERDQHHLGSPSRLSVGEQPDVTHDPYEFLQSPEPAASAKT

[24] = target: Bromodomain testis-specific protein (Homo sapiens) (UniProt Q58F21); assay: Inhibition of human partial length BRDT bromodomain 1 (N21 to E137 residues) expressed in bacterial expression system by BROMOscan assay
[25] = target: Bromodomain testis-specific protein (Homo sapiens) (UniProt Q58F21); assay: Inhibition of BRDT bromodomain 1/2 (unknown origin) by BROMOscan assay
[26] = target: Bromodomain testis-specific protein (Homo sapiens) (UniProt Q58F21); assay: Inhibition of human partial length BRDT bromodomain 2 (K250 to E382 residues) expressed in bacterial expression system by BROMOscan assay
[27] = target: Bromodomain and PHD finger-containing protein 3 (Homo sapiens) (UniProt Q9ULD4); assay: Inhibition of human partial length BRPF3 (E588 to G701 residues) expressed in bacterial expression system by BROMOscan assay
[28] = target: Chromatin remodeling regulator CECR2 (Homo sapiens) (UniProt Q9BXF3); assay: Inhibition of human partial length CECR2 (P423 to D543 residues) expressed in bacterial expression system by BROMOscan assay
[29] = target: Nucleosome-remodeling factor subunit BPTF (Homo sapiens) (UniProt Q12830); assay: Inhibition of human partial length FALZ (S2791 to H2911 residues) expressed in bacterial expression system by BROMOscan assay
[30] = target: Histone acetyltransferase KAT2A (Homo sapiens) (UniProt Q92830); assay: Inhibition of human partial length GCN5L2 (E726 to K837 residues) expressed in bacterial expression system by BROMOscan assay
Histone acetyltransferase KAT2A (Homo sapiens), sequence (Q92830 2-837 limits assumed): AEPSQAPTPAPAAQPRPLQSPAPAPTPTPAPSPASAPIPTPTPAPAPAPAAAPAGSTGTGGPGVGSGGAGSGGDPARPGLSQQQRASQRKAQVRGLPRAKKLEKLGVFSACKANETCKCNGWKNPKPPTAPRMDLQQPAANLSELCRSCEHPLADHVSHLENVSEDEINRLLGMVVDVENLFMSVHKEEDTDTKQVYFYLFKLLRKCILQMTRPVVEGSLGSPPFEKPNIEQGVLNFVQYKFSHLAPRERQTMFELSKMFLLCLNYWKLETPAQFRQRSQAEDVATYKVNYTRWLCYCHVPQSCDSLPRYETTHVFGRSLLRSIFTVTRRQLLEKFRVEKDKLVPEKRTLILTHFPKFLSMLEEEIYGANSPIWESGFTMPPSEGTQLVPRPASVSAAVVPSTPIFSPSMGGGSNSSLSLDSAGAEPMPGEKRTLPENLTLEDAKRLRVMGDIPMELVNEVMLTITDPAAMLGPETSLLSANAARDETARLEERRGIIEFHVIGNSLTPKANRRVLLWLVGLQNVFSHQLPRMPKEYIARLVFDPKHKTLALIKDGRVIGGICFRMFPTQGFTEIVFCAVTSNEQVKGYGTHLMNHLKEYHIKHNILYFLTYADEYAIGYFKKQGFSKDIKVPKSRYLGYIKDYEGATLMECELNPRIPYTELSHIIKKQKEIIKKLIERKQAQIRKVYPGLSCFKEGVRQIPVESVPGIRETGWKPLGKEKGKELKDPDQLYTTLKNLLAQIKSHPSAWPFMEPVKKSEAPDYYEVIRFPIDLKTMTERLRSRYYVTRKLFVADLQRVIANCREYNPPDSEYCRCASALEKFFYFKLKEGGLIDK

[31] = target: Protein polybromo-1 (Homo sapiens) (UniProt Q86U86); assay: Inhibition of human partial length PBRM1 bromodomain 1 (S178 to E291 residues) expressed in bacterial expression system by BROMOscan assay
[32] = target: Histone acetyltransferase KAT2B (Homo sapiens) (UniProt Q92831); assay: Inhibition of human partial length PCAF (G715 to D831 residues) expressed in bacterial expression system by BROMOscan assay
Histone acetyltransferase KAT2B (Homo sapiens), sequence (Q92831 whole entry, looked up, the tested form may be a part): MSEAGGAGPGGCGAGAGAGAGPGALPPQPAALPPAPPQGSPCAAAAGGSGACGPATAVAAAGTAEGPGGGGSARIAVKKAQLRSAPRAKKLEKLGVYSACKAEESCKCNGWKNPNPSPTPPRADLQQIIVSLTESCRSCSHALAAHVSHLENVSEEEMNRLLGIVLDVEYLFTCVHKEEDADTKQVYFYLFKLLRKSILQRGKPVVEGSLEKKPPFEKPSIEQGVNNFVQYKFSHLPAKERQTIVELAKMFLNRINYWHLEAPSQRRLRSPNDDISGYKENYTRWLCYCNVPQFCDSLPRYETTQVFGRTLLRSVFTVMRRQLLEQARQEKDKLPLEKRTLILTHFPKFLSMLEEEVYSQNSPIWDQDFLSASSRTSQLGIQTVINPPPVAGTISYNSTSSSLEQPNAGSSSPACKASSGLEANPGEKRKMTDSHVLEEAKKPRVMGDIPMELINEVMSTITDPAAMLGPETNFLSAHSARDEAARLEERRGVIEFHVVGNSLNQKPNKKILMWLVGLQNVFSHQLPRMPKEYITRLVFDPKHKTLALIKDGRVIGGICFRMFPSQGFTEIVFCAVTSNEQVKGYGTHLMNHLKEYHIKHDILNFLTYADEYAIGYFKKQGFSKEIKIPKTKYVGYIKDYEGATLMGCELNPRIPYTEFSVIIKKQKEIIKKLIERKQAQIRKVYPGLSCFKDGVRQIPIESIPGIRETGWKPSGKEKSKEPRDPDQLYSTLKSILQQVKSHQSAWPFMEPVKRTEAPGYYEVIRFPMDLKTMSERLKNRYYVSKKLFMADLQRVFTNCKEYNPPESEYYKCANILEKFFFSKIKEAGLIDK

[33] = target: SWI/SNF-related matrix-associated actin-dependent regulator of chromatin subfamily A member 4 (Homo sapiens) (UniProt P51532); assay: Inhibition of human partial length SMARCA4 (A1448 to S1575 residues) expressed in bacterial expression system by BROMOscan assay
[34] = target: Transcription initiation factor TFIID subunit 1-like (Homo sapiens) (UniProt Q8IZX4); assay: Inhibition of human partial length TAF1L bromodomain 2 (Q1523 to D1654 residues) expressed in bacterial expression system by BROMOscan assay
[35] = target: Transcription intermediary factor 1-alpha (Homo sapiens) (UniProt O15164); assay: Inhibition of human partial length TRIM24 (P790 to P977 residues) expressed in bacterial expression system by BROMOscan assay
[36] = target: E3 ubiquitin-protein ligase TRIM33 (Homo sapiens) (UniProt Q9UPN9); assay: Inhibition of human partial length TRIM33 (D882 to A1087 residues) expressed in bacterial expression system by BROMOscan assay
[37] = target: Bromodomain and WD repeat-containing protein 1 (Homo sapiens) (UniProt Q9NSI6); assay: Inhibition of human partial length WDR9 bromodomain 2 (A1310 to E1430 residues) expressed in bacterial expression system by BROMOscan assay

CNC(=O)c1cc(C(=O)N[C@@H]2[C@@H]3COC[C@@H]32)cc2c1O[C@H](CF)[C@H]2c1ccccc1
73 mL/min/kg: clearance [4]
0.3 mL/min/kg: CL renal [9]
3 mL/min/kg: clearance [8]
3.56: CHI [1]
4 mL/min/kg: CL renal [5]
4.8 h: half-life [10]
2.1 L/kg: Vd [6]
inactive: inhibition [12] | inhibition [13] | inhibition [14] | inhibition [15] | inhibition [16] | inhibition [17] | inhibition [18] | inhibition [19] | inhibition [20] | inhibition [21] | inhibition [22] | inhibition [23] | inhibition [24] | inhibition [25] | inhibition [26] | inhibition [27] | inhibition [28] | inhibition [29] | inhibition [30] | inhibition [31] | inhibition [32] | inhibition [33] | inhibition [34] | inhibition [35] | inhibition [36] | inhibition [37]
< 0.65 mL/min/g: CLH [3]
16.5 ×10⁻⁶ cm/s: Papp [2]
87%: bioavailability [11]
0.6 h: half-life [7]
